Measured values as given in article PMC3784060 (Cancer Chemotherapy and Pharmacology, 2013).
Where two headings read alike, the source gives them in different places.

Tests used:
[1] = test system: relapsed/refractory AML and ALL; assay: phase II study in acute leukemia: response, blast/WBC reduction, time to progression; format: in vivo, human
Protocol: Each cycle lasted 21 days. Patient could continue treatment on the study in the absence of disease progression or unacceptable toxicity. The next cycle of therapy could start if non-hematologic toxicity from previous cycle recovered to ≤grade 1, and dose delay of up to 3 weeks was allowed for recovery. Permanent dose reduction was required for any ≥grade 3 clinically significant non-hematologic adverse event (70 mg/m^2 → 50 mg/m^2; 50 mg/m^2 → 40 mg/m^2; 40 mg/m^2 → 30 mg/m^2; 30 mg/m^2 → discontinue). To allow for continued treatment of subjects whose cytopenias were due to leukemia and not due to drug toxicity, subsequent cycles of treatment were allowed if absolute neutrophil count (ANC) ≥0.5 × 10^9/L or for ANC <0.5 × 10^9/L but no more than 20 % below the baseline pretreatment levels and platelet count ≥20 × 10^9/L or platelets <20 × 10^9/L but no more than 20 % below the baseline pretreatment levels. Anti-emetic prophylaxis including serotonin-receptor antagonist, metoclopramide, or prochloperazine with or without dexamethasone was allowed. […] Dexamethasone 20 mg IV was given early if symptoms of cytokine release syndrome were observed.
Response was assessed by bone marrow (BM) examination on day 21 of cycles 1 and 2, and every 6 weeks thereafter until complete remission or progressive disease (PD). Response was determined according to the revised recommendations of the International Working Group (IWG) for AML [33]. Toxicities were graded according to the National Cancer Institute Common Terminology Criteria for Adverse Events (NCI CTCAE), version 3.0 (http://ctep.cancer.gov/protocolDevelopment/electronic_applications/docs/ctcaev3.pdf). Hematologic and chemistry profiles were monitored on day 1 and 2 of each cycle or until resolution of acute toxicities and subsequently at least once a week or more frequently depending on the individual patient’s needs.
The primary efficacy endpoint of the study was the ORR, including complete remission (CR), CR with incomplete count recovery (CRi), and partial remission.

[2] = test system: acute leukemia (WBC count); conditions: cited from earlier work
[3] = AML patients, all treated subjects

gemtuzumab ozogamicin [Mylotarg (GO), reference compound]
Beta Posterior Mean (Bayes estimate of the response rate) [1, 3]: 0.167 | Number of Non-responders [1, 3]: 7 | Number of Responders [1, 3]: 1 | Posterior Probability (This treatment is better) [1, 3]: 0.801 | Observed Response Rate (%) ([1]; AML patients, all treated subjects, frequentist approach): 12.500% | Median time to progression, Estimate ([1]; all treated AML patients): 7.57 weeks | Number of Events (progression) ([1]; all treated AML patients): 7 | Hazard Ratio, Estimate (Mylotarg/Dinaciclib) ([1]; time to progression, all treated AML patients): 0.71

CN1CC[C@H](c2c(O)cc(O)c3c(=O)cc(-c4ccccc4Cl)oc23)[C@H](O)C1 [flavopiridol]
patients with >50 % decrease in WBC count ([2]; 1-h bolus for 3 days): ~44% | patients with >50 % decrease in WBC count ([2]; hybrid schedule for 3 days): approximately 83%
